Experimental data from US20240252508A1, “Novel glucose uptake inhibitors for use in the treatment of cancer” (NOVELYEAST BV, priority 2021, published 2024).
“Also recorded” adds a separate entry of the source.

Experiments:
[1] = test system: A549 lung adenocarcinoma cells; assay: A549 cell proliferation / growth inhibition; assay type: cell-based, human; settings: for Selected from primary screen for growth inhibition of A549 cells at 50 μM: 50 μM compound; for Selected for having an IC50 ratio (10 mM glucose: 1 mM glucose) of A549 growth higher than WBC-A: IC50 on 10 mM vs 1 mM glucose, compared with WBC-A
Outline: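 A549 growth screened in RPMI with 1 mM glucose, compounds at 50 μM; cell number from counts of Hoechst-stained nuclei after 3 days. Growth curves also followed by IncuCyte phase-contrast confluency over 3–5 days (1000–1500 cells/well), DMSO ≤0.1%, ≥4 technical repeats.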

[2] = test system: U266 multiple myeloma cell line; assay: U266 proliferation (cell count); assay type: cell-based, human; settings: 25 μM, 4 days, RPMI with 1 mM glucose
Description: a. Cell count of the U266 multiple myeloma cell line after 4 days of growth on RPMI medium with 1 mM glucose. Cells were treated with either DMSO or 25 μM of WBC-A, -15C, -4C or -11C. Glucose consumption (b.) or lactate secretion (c.) rates are shown for U266 cells incubated in RPMI medium supplemented with 1 mM glucose for 8 h.

[3] = Warbicin toxicity and tolerability in mice; assay type: in vivo, NMRI-nu mice
Description: Warbicin in vivo toxicity and tolerability was examined by subjecting NMRI-nu mice to daily intraperitoneal injection of either WBC-A, WBC-15C, WBC-4C or WBC-11C. Compounds were dosed at either 5 mg/kg, 10 mg/kg or 20 mg/kg over a period of 20 days. Three mice were used per condition. To evaluate toxicity, change in body weight was registered daily. As a humane endpoint, mice that lost more than 20% of their original body weight were prematurely sacrificed. An optimal dissolve strategy was developed to administer WBC compounds by intraperitoneal injection. Due to their considerable hydrophobicity, compounds were dissolved in a sterilized 1×PBS, 5% DMSO and 5% Tween-80 solution. For WBC-A, -15C and -4C, this gives an initial clear solution that gradually changes over time into a homogenous suspension which can still be administered in a reproducible way. For WBC-11C it immediately results in a homogenous suspension.

[4] = test system: A549 lung adenocarcinoma cells; assay: Steady-state glucose consumption and lactate production in A549 cells; assay type: cell-based, human; settings: 25 μM, 1 mM glucose, 8 h
Description: (§1) The influence of WBC compounds on the steady-state glucose consumption rate was studied in the A549 adenocarcinoma and KMS-12-PE multiple myeloma cell lines. As such, different parameters needed to be optimized depending on whether cells were adherent or in suspension. As such, A549 cells were incubated at 125,000 cells/well in a 24-well plate in 300 μL RPMI medium for 8 h. For the KMS-12-PE cell line, 100,000 cells/well were incubated in 100 μL RPMI medium in a 96-well plate for 8 h. Medium was collected, spun down and HPLC-analyzed for measuring glucose and lactate levels. Metabolite levels were corrected for cell number, which always varied little over the span of 8 h. For every condition, at least 4 technical repeats were included.

[5] = test system: A549 lung adenocarcinoma cells; assay: 2-deoxyglucose uptake in A549 cells; assay type: cell-based, human; settings: Lineweaver-Burk plot analysis
Description: Zero-trans glucose uptake in A549 cells was approximated by measuring the uptake of [1,2-^3H]2-deoxyglucose. For this purpose, A549 cells were pregrown in RPMI medium containing 10 mM glucose in a 24-well plate to a cell density of around 100,000 cells/well. Prior to adding radioactive label, cells were gently washed twice in Krebs-Ringer-HEPES buffer (50 mM HEPES pH 7.4, 137 mM NaCl, 4.7 mM KCl, […], 1.3 mM MgSO4 and 0.1% w/v BSA) at 30° C. to remove any residual sugar. RPMI medium without sugar containing the compound intended for treatment, was added to the cells for 15 min at 37° C. to allow adequate interaction of the cells with the compound.
The uptake measurement was initiated by adding an equal volume of medium containing radiolabeled 2DG. After 3-4 min, medium was aspirated and cells were gently washed three times with ice-cold Krebs-Ringer-HEPES buffer. Cells were lysed by adding 200 μL of ice-cold 0.1 M NaOH solution and incubating the plate for 10 min at 37° C. Cell lysates were transferred to scintillation vials for subsequent scintillation counting. For blank measurements, cells were incubated with 50 μM Cytochalasin B prior to the uptake measurement.

[6] = test system: KMS-12-PE multiple myeloma cells; assay: Steady-state glucose consumption and lactate production in KMS-12-PE cells; assay type: cell-based, human; settings: 25 μM, 1 mM glucose, 8 h
Description: as §1

tps1Δ cells = assay: Growth rescue of tps1Δ strain on glucose (growth curves, 2% galactose medium); assay type: cell-based, S. cerevisiae; settings: 100 μM compound, 2.5 mM glucose
Outline: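 tps1Δ yeast pregrown in Complete Synthetic medium with 2% galactose, washed, resuspended to OD 0.1; compounds added 10 min before glucose. Growth followed as OD595 every 30 min at 30 °C in at least three technical replicates.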

SMILES | Selected from primary screen for growth inhibition of A549 cells at 50 μM ([1]; 1 mM glucose) | Selected for having an IC50 ratio (10 mM glucose: 1 mM glucose) of A549 growth higher than WBC-A [1] | Rescue of the tps1Δ strain on 2.5 mM glucose at 100 μM (tps1Δ cells) | other results
Cc1nc(NCC(=O)Nc2ccccc2Br)c2c(-c3cccs3)csc2n1 [WBC-15C] |  |  |  | Growth inhibition of A549 cells at the highest concentration ([1]; 50 μM, 1 mM glucose): failed to cause complete inhibition; Potency in reducing maximal growth rate of A549 cells ([1]; 1 mM glucose, 6.25-50 μM): least potent; Proliferation of U266 cell line [2]: inhibit proliferation; Toxic effects in organs at autopsy, 20 mg/kg ([3]; daily i.p. 20 mg/kg, not observed at lower concentrations): toxic effects were seen in the liver and other organs; Loss in body weight over 20 days ([3]; daily i.p. 5, 10 and 20 mg/kg, nude mice): no significant loss in body weight; also recorded: No significant difference; AST/ALT ratio vs vehicle ([3]; sera after 20 days, 5, 10, 20 mg/kg i.p.): No significant difference; Blood glucose level vs vehicle ([3]; sera post mortem after 20 days, 5, 10, 20 mg/kg i.p.): No significant difference; Glucose consumption and lactate production in A549 cells [4]: inhibited; Type of inhibition of 2-deoxyglucose uptake in A549 cells [5]: competitive; Glucose consumption and lactate production in KMS-12-PE cells [6]: inhibited
[O-][S+](CCSc1ncnc2scc(-c3ccc(F)cc3)c12)c1ccccc1 (stereo not shown) [45C] | Yes | Lower IC50 ratio | No | 
Cc1nc(Sc2nnc(-c3ccncc3)n2C)c2c(-c3cccs3)csc2n1 [26A] | Yes | Lower IC50 ratio | Yes | 
Cn1nnnc1Sc1nc(CN2CCOCC2)nc2scc(-c3cccs3)c12 [54A] | Yes | Lower IC50 ratio | No | 
Cc1nc(N(C)CC(N)=O)c2c(-c3cccs3)csc2n1 [39B] | No |  | No | 
Cc1nc(N(C)Cc2nnc3n2CCCCC3)c2c(-c3ccccc3)csc2n1 [33A] | No |  | No | 
CSc1nc(C)nc2scc(-c3cccs3)c12 [45A] | No |  | No | 
Cc1nc(SCC(=O)NC(C)(C#N)C2CC2)c2c(-c3cccs3)csc2n1 (stereo not shown) [18B] | Yes | Higher IC50 ratio, but false-positive | No | 
Cc1nc(Sc2nnnn2C)c2c(-c3cccs3)csc2n1 [39A] | Yes | Lower IC50 ratio | No | 
Cc1nc(SCC(=O)NC(=O)NCc2ccco2)c2cc(-c3ccccc3)sc2n1 [40B] | Yes | Lower IC50 ratio | No | 
Cc1nc(SCCO)c2c(C)c(C)sc2n1 [57C] | No |  | No | 
Cc1nc(SCC(=O)NCC(=O)Nc2cccc(C)c2C)c2c(-c3cccs3)csc2n1 [41B] | No |  | No | 
Cc1cc(C)nc(Sc2nc(CN3CCOCC3)nc3scc(-c4cccs4)c23)n1 [64C] | Yes | Lower IC50 ratio | No | 
Cc1nc(SCCN2CCCS2(=O)=O)c2c(C)c(C)sc2n1 [83C] | No |  | No | 
CCn1c(Sc2nc(C)nc3scc(-c4cccs4)c23)nnc1-c1ccncc1 [43C] | Yes |  | Yes | 
CCCc1nnc(Sc2nc(CN3CCOCC3)nc3scc(-c4cccs4)c23)[nH]1 [62C] | Yes | Lower IC50 ratio | No | 
Cc1nc(SCCO)c2c3c(sc2n1)CCC3 [24C] | No |  | No | 
Cc1sc2nc(CN3CCC(C)CC3)nc(Sc3nnc(C4CC4)n3CCC(N)=O)c2c1C [17A] | Yes | Lower IC50 ratio | No | 
Cc1nc(SCC(=O)Nc2ccc(OC(F)(F)F)cc2)c2c(-c3cccs3)csc2n1 [5C] | Yes | Lower IC50 ratio | No | 
COC(=O)CSc1nc(C)nc2scc(-c3cccs3)c12 [53A] | No |  | Yes | 
CCn1nnnc1Sc1ncnc2scc(-c3ccc(C)cc3)c12 [61A] | Yes | Lower IC50 ratio | No | 
